Source: patent publication US12606534B2, “Method for the treatment of keratin materials using acid, ester or amide C-glycoside derivatives, and cosmetic composition containing same” (L'OREAL, priority 2016, dated 2026)

Tested on: normal human melanocytes
Experiment: Depigmenting activity (reduction of melanin production) in normal human melanocytes in vitro
Type: cell-based
Details: compound at 100 μM, 72 hours incubation, optical density (amount of melanin)
Protocol: The depigmenting activity (reduction of melanin production) of compounds of formula (I) was measured by assay in normal human melanocytes in vitro as follows.
First, normal human melanocytes are cultured and distributed in a multiple-well plate.
After 24 hours, the culture medium was replaced with a medium containing the compounds of formula (I) to be evaluated. The cells were incubated for 72 hours before measuring the final optical density, which measures the amount of melanin produced by the melanocytes. The measurement was calibrated and the compounds were tested at 100 μM.
Various test runs were performed and the results are collated in the following tables.

Question: With O=C(O)C[C@@H]1O[C@H](CO)[C@@H](O)[C@H](O)[C@H]1O [Compound 2] as the compound, how does the “% depigmentation at 100 μM, Run 2” value (Run 2) read?
Answer: 29%

Question: C[C@@H]1OC(CC(=O)N(C)C)[C@H](O)[C@H](O)[C@H]1O (stereo partly drawn) [Compound 4] was tested. Which “% depigmentation at 100 μM, Run 1” value (Run 1) did it give?
Answer: 15%

Question: How did the “% depigmentation at 100 μM, Run 3” value (Run 3) turn out when CC(=O)OC[C@H]1OC(CC(=O)O)[C@H](OC(C)=O)[C@@H](OC(C)=O)[C@@H]1OC(C)=O (stereo partly drawn) [Compound 1] was run?
Answer: 24%
